Data set [1] in a line: Determination of solubility in neutral buffer solution. Type of data set: physicochemical. Particulars: aqueous buffer, thermodynamic from solid; 0.15 M phosphate buffer pH 7.2, room temperature, left overnight, supernatant by HPLC. The procedure:
Determination of Solubility:
A test compound was suspended in 0.15 M phosphate buffer solution having pH of 7.2 at room temperature. The obtained suspension was vigorously shaken and then left to stand overnight. The insoluble compound was removed by centrifugation, and the concentration of the compound in the supernatant was determined by the high-performance liquid chromatography.

Data set [2] addresses calcium channel (blood vessel, thoracic aortae) (Rattus norvegicus, UniProt P22002). Nature of the data set: In vitro calcium channel-antagonistic effect (blood vessel): inhibition of high potassium contraction of thoracic aorta spiral samples. It counts as cell-based, rat (male Crj:CD). Particulars: 30 minute pretreatment; for inhibition at 0.1 µM: high potassium (45.0 mM KCl) contraction, 10^−7 M test compound, read-out: Inhibition rate (%) (conc.: 10^−7M). The procedure:
In Vitro Calcium Channel-antagonistic Effect (Blood Vessel):
The thoracic aortae were taken out of male Crj:CD rats (8-12 weeks old) and spiral samples were prepared from them. The blood vessel samples were suspended in Tyrode's solution in which a mixed gas (95% of oxygen and 5% of carbon dioxide) was introduced at 37° C. As for the change in tension of each blood vessel, the isometry was recorded on an ink writing recorder through a transducer. The high potassium contraction was caused by changing the nutritive solution from the Tyrode's solution to a potassium-Tyrode's solution (94.6 mM of NaCl, 45.0 mM of KCl, 1.8 mM of CaCl2, 1.04 mM of MgCl2, 0.4 mM of NaH2PO4, 11.9 mM of NaHCO3, and 5.55 mM of glucose). The high potassium contraction-inhibiting effect of the test compound was determined by 30 minute pretreatment. Compound A described in European Patent No. 0404359A1 was used as a comparative substance. The results of the determination of the calcium channel antagonistic activity were given in terms of the rate of inhibition of the high calcium contraction with 10^−7 M of the test compound. In Table 1, “−” means not determined.

The next data set addresses calcium channel (ileum) (Rattus norvegicus, UniProt P22002). Nature of the data set: In vitro calcium channel-antagonistic effect (ileum): inhibition of high potassium contraction of ileum samples. As to conditions: 30 minute pretreatment; for inhibition at 0.1 µM: high potassium (45.0 mM KCl) contraction, 10^−7 M test compound, read-out: Inhibition rate (%) (conc.: 10^−7M). It counts as cell-based, rat (male Crj:CD). The procedure:
In Vitro Calcium Channel-antagonistic Effect (Ileum):
The ileum was taken out of male Crj:CD rats (8-12 weeks old) at a position of 3 cm distant from the ileocecal region. The ileum samples were suspended in Tyrode's solution in which a mixed gas (95% of oxygen and 5% of carbon dioxide) was introduced at 37° C. As for the change in tension of the ileum, the isometry was recorded on a ink writing recorder through a transducer. The high potassium contraction was caused by changing the nutritive solution from the Tyrode's solution to a potassium-Tyrode's solution (94.6 mM of NaCl, 45.0 mM of KCl, 1.8 mM of CaCl2, 1.04 mM of MgCl2, 0.4 mM of NaH2PO4, 11.9 mM of NaHCO3, and 5.55 mM of glucose). The high potassium contraction-inhibiting effect of the test compound was determined by 30 minute pretreatment. Compound A described in European Patent No. 0404359A1 was used as a comparative substance. The results of the determination of the calcium channel antagonistic activity were given in terms of the rate of inhibition of the high calcium contraction with 10^−7 M of the test compound. In Table 2, “−” means not determined.

Structures are written as SMILES.

Chain of calcium channel (blood vessel, thoracic aortae) (P22002 whole entry): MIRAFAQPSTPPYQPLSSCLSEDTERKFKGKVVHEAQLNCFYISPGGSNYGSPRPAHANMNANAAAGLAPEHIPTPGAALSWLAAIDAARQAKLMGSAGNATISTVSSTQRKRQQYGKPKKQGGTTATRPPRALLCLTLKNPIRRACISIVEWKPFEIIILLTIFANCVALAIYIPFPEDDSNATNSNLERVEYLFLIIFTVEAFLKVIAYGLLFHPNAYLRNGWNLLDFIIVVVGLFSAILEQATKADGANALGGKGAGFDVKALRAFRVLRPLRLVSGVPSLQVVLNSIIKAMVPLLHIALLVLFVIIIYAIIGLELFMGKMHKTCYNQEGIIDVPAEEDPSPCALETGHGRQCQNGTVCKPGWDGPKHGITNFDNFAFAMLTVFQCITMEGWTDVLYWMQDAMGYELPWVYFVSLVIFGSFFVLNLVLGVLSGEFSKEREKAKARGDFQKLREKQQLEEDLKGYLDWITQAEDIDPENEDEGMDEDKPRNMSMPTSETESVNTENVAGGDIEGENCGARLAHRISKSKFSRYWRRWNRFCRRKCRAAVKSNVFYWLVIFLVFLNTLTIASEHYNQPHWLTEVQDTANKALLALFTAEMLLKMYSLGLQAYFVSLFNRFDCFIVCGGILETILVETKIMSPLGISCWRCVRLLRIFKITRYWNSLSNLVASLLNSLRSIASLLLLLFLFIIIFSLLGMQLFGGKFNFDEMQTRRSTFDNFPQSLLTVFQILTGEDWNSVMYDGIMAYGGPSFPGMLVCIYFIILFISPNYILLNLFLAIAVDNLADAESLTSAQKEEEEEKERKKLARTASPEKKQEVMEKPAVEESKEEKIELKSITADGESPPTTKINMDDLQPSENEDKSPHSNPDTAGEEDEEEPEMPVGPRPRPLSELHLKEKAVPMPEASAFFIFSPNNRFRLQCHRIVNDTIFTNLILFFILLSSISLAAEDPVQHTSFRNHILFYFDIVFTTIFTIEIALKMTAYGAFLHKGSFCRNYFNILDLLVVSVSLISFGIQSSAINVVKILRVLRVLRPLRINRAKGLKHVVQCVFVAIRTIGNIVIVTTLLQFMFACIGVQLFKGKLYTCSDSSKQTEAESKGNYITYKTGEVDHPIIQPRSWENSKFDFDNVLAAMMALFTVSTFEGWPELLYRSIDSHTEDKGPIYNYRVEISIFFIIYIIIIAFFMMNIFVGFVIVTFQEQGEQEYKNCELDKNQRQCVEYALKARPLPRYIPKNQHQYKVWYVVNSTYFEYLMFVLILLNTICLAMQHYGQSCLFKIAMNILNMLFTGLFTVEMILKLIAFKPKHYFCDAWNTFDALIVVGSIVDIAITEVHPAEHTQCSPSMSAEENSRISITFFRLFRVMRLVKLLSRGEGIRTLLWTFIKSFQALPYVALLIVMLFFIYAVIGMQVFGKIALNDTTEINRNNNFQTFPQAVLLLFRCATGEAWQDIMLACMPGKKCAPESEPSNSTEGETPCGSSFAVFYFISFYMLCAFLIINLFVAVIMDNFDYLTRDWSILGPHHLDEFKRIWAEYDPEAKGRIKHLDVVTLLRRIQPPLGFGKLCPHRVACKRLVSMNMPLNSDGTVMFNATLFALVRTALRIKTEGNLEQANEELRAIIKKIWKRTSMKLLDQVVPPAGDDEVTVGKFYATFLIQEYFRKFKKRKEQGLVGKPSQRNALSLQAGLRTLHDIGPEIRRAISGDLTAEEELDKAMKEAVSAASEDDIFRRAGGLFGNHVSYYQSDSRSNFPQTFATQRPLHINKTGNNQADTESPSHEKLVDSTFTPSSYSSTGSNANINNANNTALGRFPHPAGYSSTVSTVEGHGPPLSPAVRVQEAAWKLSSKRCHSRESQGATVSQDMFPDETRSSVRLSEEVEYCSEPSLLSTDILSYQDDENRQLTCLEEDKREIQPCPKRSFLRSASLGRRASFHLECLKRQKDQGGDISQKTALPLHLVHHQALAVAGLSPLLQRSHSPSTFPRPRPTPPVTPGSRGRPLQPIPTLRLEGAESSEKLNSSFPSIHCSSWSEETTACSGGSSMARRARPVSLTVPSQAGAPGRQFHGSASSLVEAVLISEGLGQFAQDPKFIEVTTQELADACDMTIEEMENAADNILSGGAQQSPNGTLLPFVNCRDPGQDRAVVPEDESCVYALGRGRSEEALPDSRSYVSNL
Chain of calcium channel (ileum) (P22002 whole entry): as above

In the case of `Cl.Cl.Nc1ccccc1CCN1CCC[C@@H]1CN1c2ccccc2COc2ccccc21`, the melting point was in the range of 168 to 172 °C.

With `COc1ccc(CCN2CCC[C@@H]2CN2c3ccccc3COc3ccccc32)cc1N(C)C.Cl.Cl`, the melting point is 141 to 144 °C.

As to `Cl.O[C@@H](CCN1CCC[C@@H]1CN1c2ccccc2COc2ccccc21)c1ccccc1`, the melting point lay within 149 to 150 °C.

As to `Cl.O[C@H](CCN1CCC[C@@H]1CN1c2ccccc2COc2ccccc21)c1ccccc1`, the melting point was in the range of 179 to 182 °C.

In the case of `COc1ccc(C=CCN2CCC[C@@H]2CN2c3ccccc3COc3ccccc32)cc1.Cl`, the melting point was 120 to 122 °C.

`COc1ccc(OCCN2CCC[C@@H]2CN2c3ccccc3COc3ccccc32)cc1.Cl` returned a melting point of 186 to 191 °C.

The compound `Cl.Cl.Nc1ccc(CCN2CCC[C@@H]2CN2c3ccccc3COc3ccccc32)cc1` gave a melting point of 176 to 180 °C.

In data set [1], `COc1ccc(CCN2CCCC2CN2c3ccccc3CSc3ccccc32)cc1.O=C(O)/C=C\C(=O)O` (stereo not drawn) [Compound A, reference compound] returned a solubility of 13 µg/mL. Moreover, the IC50 in data set [2] (high potassium contraction, read-out: IC50 (nM), concentration for 50% contraction inhibition) turned out to be 530 nM; at calcium channel (ileum) (high potassium contraction, read-out: IC50(nM), concentration for 50% contraction inhibition), 120 nM.

Compound `CN(C)c1ccc(CCN2CCC[C@@H]2CN2c3ccccc3COc3ccccc32)cc1.Cl.Cl` [Example 2, (R)-5,11-Dihydro-5-[1-[2-(4-dimethylaminophenyl)ethyl]-2-pyrrolidinylmethyl]dibenzo[b,e][1,4]oxazepine Dihydrochloride] gave a melting point of 164 to 169 °C. The compound also returned a solubility in data set [1] of 36 µg/mL. Moreover, in data set [2], the inhibition at 0.1 µM stood at 12%. Moreover, the inhibition at 0.1 µM on calcium channel (ileum) amounted to 62%.

`CCN(CC)c1ccc(CCN2CCC[C@@H]2CN2c3ccccc3COc3ccccc32)cc1.Cl.Cl` [Example 6, (R)-5,11-Dihydro-5-[1-[2-(4-diethylaminophenyl)ethyl]-2-pyrrolidinylmethyl]dibenzo[b,e][1,4]oxazepine Dihydrochloride] came in with a melting point of 143 to 146 °C. This compound displayed a solubility in data set [1] of 638 µg/mL. In addition, the inhibition at 0.1 µM in data set [2] was 24%. The inhibition at 0.1 µM on calcium channel (ileum) turned out to be 51%.

As to `CNc1ccc(CCN2CCC[C@@H]2CN2c3ccccc3COc3ccccc32)cc1.Cl.Cl` [Example 8, (R)-5,11-Dihydro-5-[1-[2-(4-methylaminophenyl)ethyl]-2-pyrrolidinylmethyl]dibenzo[b,e][1,4]oxazepine Dihydrochloride], the melting point lay in the range of 134 to 137 °C. Moreover, in data set [1], the solubility was 116 µg/mL.

`CN(C)c1cccc(CCN2CCC[C@@H]2CN2c3ccccc3COc3ccccc32)c1.Cl.Cl` [Example 10, (R)-5,11-Dihydro-5-[1-[2-(3-dimethylaminophenyl)ethyl]-2-pyrrolidinylmethyl]dibenzo[b,e][1,4]oxazepine Dihydrochloride]: the melting point fell in the range of 125 to 128 °C. For the same compound, the solubility in data set [1] worked out at 30 µg/mL. Further, the inhibition at 0.1 µM in data set [2] turned out to be 51%. Further, the inhibition at 0.1 µM at calcium channel (ileum) came out at 87%.

`Cl.Cl.Nc1cccc(CCN2CCC[C@@H]2CN2c3ccccc3COc3ccccc32)c1` [Example 13, (R)-5,11-Dihydro-5-[1-[2-(3-aminophenyl)ethyl]-2-pyrrolidinylmethyl]dibenzo[b,e][1,4]oxazepine Dihydrochloride] came in with a melting point of 149 to 152 °C. Moreover, the solubility in data set [1] came to 418 µg/mL.

`CNc1cccc(CCN2CCC[C@@H]2CN2c3ccccc3COc3ccccc32)c1.Cl.Cl` [Example 14, (R)-5,11-Dihydro-5-[1-[2-(3-methylaminophenyl)ethyl]-2-pyrrolidinylmethyl]dibenzo[b,e][1,4]oxazepine Dihydrochloride] returned a melting point of 179 to 181 °C. This compound gave a solubility in data set [1] of 56 µg/mL. In addition, the inhibition at 0.1 µM in data set [2] came to 41%. In addition, on calcium channel (ileum), the inhibition at 0.1 µM stood at 76%.

Consider `CN(C)c1cccc(CCN2CCC[C@@H]2CN2c3ccccc3COc3ccccc32)c1.Cl.Cl` [Example 19, (R)-5,11-Dihydro-5-[1-[2-(3-dimethylaminophenyl)ethyl]2-pyrrolidinylmethyl)dibenzo[b,e][1,4]oxazepine Dihydrochloride], for which the melting point fell in the range of 170 to 172 °C.

Regarding `COc1ccc(CCCN2CCC[C@@H]2CN2c3ccccc3COc3ccccc32)cc1.Cl` [Example 24, (R)-5,11-Dihydro-5-[1-[3-(4-methoxyphenyl)propane-1-yl]-2-pyrrolidinylmethyl]dibenzo[b,e][1,4]oxazepine Hydrochloride], the melting point lay in the range of 172 to 174 °C. Besides, the solubility in data set [1] was 49 µg/mL. For the same compound, the inhibition at 0.1 µM in data set [2] was 31%. On calcium channel (ileum), the inhibition at 0.1 µM was 67%.

On to `CN(C)c1cccc(CCCN2CCC[C@@H]2CN2c3ccccc3COc3ccccc32)c1.Cl.Cl` [Example 38, (R)-5,11-Dihydro-5-[1-[3-(3-dimethylaminophenyl)propane-1-yl]-2-pyrrolidinylmethyl]dibenzo[b,e][1,4]oxazepine Dihydrochloride], for which the melting point was 120 to 123 °C. Moreover, in data set [1], the solubility was found to be 41 µg/mL. Besides, the inhibition at 0.1 µM in data set [2] was determined as 25%. Moreover, the inhibition at 0.1 µM at calcium channel (ileum) was 52%.

The values above are taken from patent US6562808B1, “5,11-dihydrodibenzo[b,e][1,4]oxazepine derivatives and pharmaceutical composition containing the same” (Ajinomoto Co., Inc., priority 1997, dated 2003).
